Results taken from patent US20250019644A1, “Quantitatively Mapping Amino Acid Properties (QMAP) Cell Culture Media” (UNIVERSITY OF IOWA RESEARCH FOUNDATION, priority 2023, published 2025).

Tests used:
Type in all cases: cell-based, human
293T = test: CellTiter-Glo Luminescent Cell Viability Assay; conditions: 2-fold dilution series, 48 hours, QMAP
Protocol: (§1) HT29, 293T, U2OS, and 3T3-LI cells were plated on an opaque 96-well plate in 1:1 DMEM. […] At the appropriate time point, 100 μl of CellTiter-Glo reagent (Promega #G7570) was added to each well. The plate was gently mixed for 2 minutes to induce lysis, incubated at room-temperature for 10 minutes, and then luminescence was measured.
(§2) To test whether tryptophan inhibition of growth applied to other cell lines and persisted in conventional cell culture media, two human cancer cell lines (HT29, U2OS), a transformed human embryonic kidney cell line (293T), and a mouse, fibroblast-like cell line (3T3-L1) were grown in DMEM for 24 hours and then treated with 2 mM tryptophan or vehicle. After 24 hours, cells were assayed by CellTiter-Glo, which indicates cell viability by measuring ATP production.

U2OS = test: CellTiter-Glo Luminescent Cell Viability Assay; conditions: 2-fold dilution series, 48 hours, QMAP
Protocol: as §1
as §2, with “After 24 hours, cells were assayed by CellTiter-Glo, which indicates cell viability by measuring ATP production.” left out

HCT116 cells [1] = test: Activity metabolomics screen of tryptophan metabolites, GC-MS profiling; conditions: 2 mM, 6 hours, QMAP
Protocol: (§3) 6-well plates were treated for 6 hours with 2 mM of the indicated tryptophan metabolite for 6 hours before media was quickly removed, and plates were washed 2× with ice-cold PBS and 2× with ice-cold water before being snap frozen with liquid nitrogen. Cell plates were lyophilized overnight before metabolite extraction. To extract metabolites, 1 ml of an extraction buffer composed of 2:2:1 methanol/acetonitrile/water with internal standards at 1 μg/ml each (D4-Citric Acid, 13C5-Glutamine, 13C5-Glutamic Acid, 13C6-Lysine, 13C5-Methionine, 13C3-Serine, D4-Succinic Acid, 13C11-Tryptophan, and D8-Valine; Cambridge Isotope Laboratories) was added to the lyophilized cell samples. Cells were scraped for 20 seconds and collected into Eppendorf tubes, flash-frozen in liquid nitrogen, and sonicated for 10 minutes.
(§4) Samples were then placed on a rotating platform at −20° C. for 1 hour and centrifuged at 4° C. for 10 minutes at 21,000×g. 300 μL of the cleared metabolite extracts were transferred to fresh tubes for additional processing. An equal volume of each extract was pooled to serve as a quality control (QC) sample, which was analyzed at the beginning, end, and at a regular interval throughout an instrument run. Extraction buffer alone was analyzed as a processing blank sample. Metabolite extracts, the quality control sample, and the processing blank were evaporated to dryness using a speed-vacuum.
The dried metabolite extracts, QC sample, and processing blank sample, were derivatized using methoxyamine hydrochloride (MOX) and N,O-Bis (trimethylsilyl) trifluoroacetamide (TMS) (Sigma). Briefly, dried extracts were reconstituted in 30 μL of 11.4 mg/ml MOX in anhydrous pyridine (VWR), vortexed for 10 minutes, and heated at 60° C. for 1 hour. Next, 20 μL TMS was added to each reconstituted extract, vortexed for 1 minute, and heated at 60° C. for 30 min. The derivatized metabolite extracts, blanks, and QC were immediately analyzed using GC/MS.
GC chromatographic separation was conducted on a Thermo Trace 1300 GC with a TraceGold TG-5SilMS column (0.25 μM film thickness; 0.25 mm ID; 30 m length). An injection volume of 1 μL was used for all samples, blanks, and QCs. The GC was operated in split mode with the following settings: 20:1 split ratio; split flow: […], purge flow: 5 mL/min, Carrier mode: Constant Flow, Carrier flow rate: 1.2 mL/min). The GC inlet temperature was 250° C. The GC oven temperature gradient was as follows: 80° C. for 3 min, ramped at 20° C./min to a maximum temperature of 280° C., which was held for 8 min. The injection syringe was washed 3 times with pyridine between each sample. Metabolites were detected using a Thermo ISQ single quadrupole mass spectrometer. The data was acquired from 3.90 to 21.00 min in EI mode (70eV) by single ion monitoring (SIM).
(§5) Acquired LC-MS and GC-MS data were processed using the Thermo Scientific TraceFinder software. Targeted metabolites were identified by matching accurate mass and retention times to the University of Iowa Metabolomics Core Facility's in-house library of confirmed standards. After peak area integration by TraceFinder, NOREVA software was applied for signal drift correction on a metabolite-to-metabolite basis using the pooled QC sample that had been analyzed throughout the instrument run. Within individual samples, Post-NOREVA metabolite levels were divided by the total metabolite load (sum of all metabolite values) to equally weight individual metabolites for comparison across samples.

HCT116 cells [2] = test: Metabolic profiling of tryptophan metabolite-treated cells, LC-MS; conditions: 6 hours, QMAP
Protocol: as §3, with “6-well plates were treated for 6 hours with 2 mM of the indicated tryptophan metabolite for 6 hours before media was quickly removed, and plates were washed 2× with ice-cold PBS and 2× with ice-cold water before being snap frozen with liquid nitrogen.” left out
as §4
Dried extracts were reconstituted in 30 μL of acetonitrile/water (1:1, V/V), vortexed for 10 minutes, and incubated at −20° C. for 18 hours. Samples were then centrifuged at 4° C. for 2 minutes at 21,000×g and the supernatant was transferred to autosampler vials for analysis.
For LC chromatographic separation, 2 μL of reconstituted metabolite extracts, QC sample, and processing blank were run on a Millipore SeQuant ZIC-PHILIC (2.1×150 mm, 5 um particle size, Millipore Sigma #150460) column with a ZIC-PHILIC guard column (20×2.1 mm, Millipore Sigma #150437) attached to a Thermo Vanquish Flex UHPLC. The mobile phase comprised Buffer A [20 mM (NH4)2CO3, 0.1% NH4OH (v/v)] and Buffer B [acetonitrile]. The chromatographic gradient was run at a flow rate of 0.150 mL/min as follows: 0-20 min-linear gradient from 80 to 20% Buffer B; 20-20.5 min-linear gradient from 20 to 80% Buffer B; and 20.5-28 min-hold at 80% Buffer B. Data were acquired using a Thermo Q Exactive MS operated in full-scan, polarity-switching mode with a spray voltage set to 3.0 kV, the heated capillary held at 275° C., and the HESI probe held at 350° C. The sheath gas flow was set to 40 units, the auxiliary gas flow was set to 15 units, and the sweep gas flow was set to 1 unit. MS data acquisition was performed with polarity switching in a range of m/z 70-1,000, with the resolution set at 70,000, the AGC target at 10e6, and the maximum injection time at 200 ms. The QC sample was analyzed at the beginning and end of the LC-MS run and after every 10 samples.
as §5

HCT116 cells [3] = test: Screen 2: metabolic profiling with unlabeled amino acids (LC-MS); conditions: 6 hours; for increase in intracellular relative abundance of the amino acid used for treatment: 2 mM dose, relative to untreated cells
Protocol: Media was changed to QMAP plus individual amino acid treatments at the start of the experiment. 200 mM amino acid stocks were used to make the QMAP+individual amino acid treatment medias that were placed in the tissue culture incubator for 30-45 minutes prior to the start of the dosing for equilibration of media bicarbonate with incubator CO2. For metabolomic profiling experiments, cells were treated with additional amino acid doses of 0.5, 1 and 2 mM, and 1 mM was used for stable isotope tracing experiments. To minimize systematic error, each amino acid dose was added as a batch (20 amino acids+vehicle control) such that each well of each plate contained a different amino acid. The process was repeated for the other two concentrations of amino acids on the next plates to make set. This was repeated four more times to achieve the sample size of 5 replicates for each of the 3 doses of amino acids. Each plate was then incubated for 6 hours in the tissue culture incubator before being rapidly washed twice with sterile water and snap frozen on liquid nitrogen before being stored at −80° C. The next day, the plates were lyophilized for 90 minutes and then stored at −80° C.
Extraction buffer was prepared by adding 2:2:1 methanol: acetonitrile: water. For profiling, the following internal standards (Cambridge Isotope Laboratories) were added at 1 μg/mL each: L-Valine-D8, L-Aspartate (^13C4, D3, ^15N) and Succinate (13C4D4). 6-well plates were removed from storage at −80° C. and 1 ml of ice-cold extraction buffer was added. Plates were incubated at −20° C. for 5 minutes, scraped, transferred to microcentrifuge tubes and frozen in liquid nitrogen. Tubes were then placed into a sonicating water bath for 10 minutes and rotated at −20° C. for 1 hour before being centrifuged at 4° C. for 10 minutes at 21,000×g. […] of extract was dried down completely using a speed-vacuum (˜90 min), dissolved in […] of acetonitrile: water (1:1), vortexed for 10 min, and stored overnight at −20° C. to allow protein precipitation. Samples were then centrifuged at 4° C. for 10 minutes at 21,000×g and the supernatants were transferred into autosampler vials for analysis. For the QCs, […] of each extract was pooled, at the step prior to drying down, mixed and dried in […] amounts alongside the samples. Once dried, QCs were processed with the samples but recombined prior to being aliquoted into autosampler vials. All samples were then frozen at −80° C., and only one set of samples, which included a QC aliquot, was thawed, vortexed and placed into the instrument.
The sheath gas flow was set to 40 units, the auxiliary gas flow was set to 15 units and the sweep gas flow was set to 1 unit. […] For tracing, […] of sample was injected twice in either positive or negative mode to maximize detection efficiency and minimize metabolite crowding using the Sim-mode.
LC-MS data was processed using the Thermo Scientific TraceFinder 5.1 software.
The three cell lines were then treated with 0.5, 1, and 2 mM of individual, unlabeled amino acids, and metabolic profiling was performed to determine how individual amino acids quantitatively altered metabolite abundance (Screen 2).

IDO1 mRNA = test: Quantitative PCR of IDO1 mRNA; conditions: 50 ng/μL for 24 hours, HCT116

## Nc1c(O)cccc1C(=O)CC(N)C(=O)O (stereo not shown) [3HK, 3-hydroxykynurenine]
293T
  cell viability: dose-dependent decrease
U2OS
  cell viability: dose-dependent decrease
HCT116 cells [1]
  aconitate level: significantly increased
  citrate level: significantly increased
  disruption of TCA cycle metabolites: more potent disruption than the other tryptophan metabolites
  distal TCA cycle metabolites: drastically and significantly decreased
  glucose 6-phosphate level: Significantly increased
  ribose 5-phosphate level: Significantly increased
  ribulose 5-phosphate level: Significantly increased
HCT116 cells [2]; 2 mM dose
  increase of xanthommatin: ~70 fold
HCT116 cells [2]; 2 mM
  oxidized glutathione (GSSG) level: significantly decreased
  reduced glutathione (GSH) level: significantly decreased

## N[C@@H](CCC(=O)O)C(=O)O [glutamate, L-glutamic acid]
HCT116 cells [3]; HCT116 cells
  increase in intracellular relative abundance of the amino acid used for treatment: 1.25 fold
HCT116 cells [3]; 0.5, 1, 2 mM
  TCA cycle intermediates: increased

## NC(=O)CC[C@H](N)C(=O)O [glutamine, L-glutamine]
HCT116 cells [3]; HCT116 cells
  increase in intracellular relative abundance of the amino acid used for treatment: ~80 fold
HCT116 cells [3]; 0.5, 1, 2 mM
  TCA cycle intermediates: increased

## NCC(=O)O [glycine, L-glycine]
HCT116 cells [3]; 0.5, 1, 2 mM, HCT116 cells
  serine level: proportional, dose-dependent increase

## N[C@@H](CO)C(=O)O [serine, L-serine]
HCT116 cells [3]; 0.5, 1, 2 mM, HCT116 cells
  glycine levels: did not increase

B1: IFN-γ: the known IDO potentiator IFN-γ (protein, UniProt P01579 24-161, looked up)
Interferon gamma: QDPYVKEAENLKKYFNAGHSDVADNGTLFLGILKNWKEESDRKIMQSQIVSFYFKLFKNFKDDQSIQKSVETIKEDMNVKFFNSNKKKRDDFEKLTNYSVTDLNVQRKAIHELIQVMAELSPAAKTGKRKRSQMLFRG
IDO1 mRNA
  IDO1 mRNA: increased
